The record followed here is ChEMBL document CHEMBL4196074, “Metallomics for Alzheimer's disease treatment: Use of new generation of chelators combining metal-cation binding and transport properties” (Eur J Med Chem, 2018).

Data set [1] relates to SH-SY5Y. As to the kind of experiment: Antiproliferative activity against human SH-SY5Y cells at 1 uM after 24 to 72 hrs by WST1 assay. The format is cell-based. (In general: Formazan colour is commonly taken as a measure of viable cells.)
The target in data set [2] is Acetylcholinesterase (Homo sapiens) (UniProt P22303). As to the kind of experiment: Inhibition of acetylcholinesterase (unknown origin) at 1 uM using acetylthiocholine chloride as substrate measured for 5 to 40 mins.
The subject of data set [3] is SH-SY5Y. Kind of data set: Neuroprotective activity against amyloid beta (1 to 42 residues) induced cell death in human SH-SY5Y cells expressing APPswe mutant at 1 uM after 48 hrs by WST1 assay. The format is functional, cell-based.
The nature of data set [4]: Metal chelating activity assessed as compound-Zn2+ complex formation by UV-vis spectrophotometric analysis.
Data set [5] can be described thus: Metal chelating activity assessed as compound-Fe3+ complex formation by UV-vis spectrophotometric analysis.
The nature of data set [6]: Metal chelating activity assessed as compound-Cu2+ complex formation by UV-vis spectrophotometric analysis.
Data set [7] has as its system SH-SY5Y. Kind of data set: Inhibition of Cu2+-mediated amyloid beta (1 to 42 residues) production in human SH-SY5Y cells expressing APPswe mutant at 1 uM after 72 hrs by ELISA based spectrophotometric analysis. Type of data set: cell-based. (In general: ELISA stands for enzyme-linked immunosorbent assay.)
Data set [8] relates to SH-SY5Y. As to the kind of experiment: Inhibition of Fe3+-mediated amyloid beta (1 to 42 residues) production in human SH-SY5Y cells expressing APPswe mutant at 1 uM after 72 hrs by ELISA based spectrophotometric analysis. Type of data set: cell-based.
The test system of data set [9] is SH-SY5Y. Kind of data set: Inhibition of Cu2+-mediated ROS generation in human SH-SY5Y cells expressing APPswe mutant at 1 uM after 72 hrs by DCF-DA dye-based fluorescence spectroscopic analysis. Type of data set: cell-based.
Data set [10] relates to SH-SY5Y. As to the kind of experiment: Inhibition of Fe3+-mediated ROS generation in human SH-SY5Y cells expressing APPswe mutant at 1 uM after 72 hrs by DCF-DA dye-based fluorescence spectroscopic analysis. The format is cell-based.
Data set [11] deals with SH-SY5Y. As to the kind of experiment: Inhibition of Cu2+-induced caspase-3 activity in human SH-SY5Y cells expressing APPswe mutant at 1 uM after 72 hrs by AcDEVD substrate-based spectrophotometric analysis. Type of data set: cell-based.
Data set [12] has as its system SH-SY5Y. As to the kind of experiment: Inhibition of Fe3+-induced caspase-3 activity in human SH-SY5Y cells expressing APPswe mutant at 1 uM after 72 hrs by AcDEVD substrate-based spectrophotometric analysis. Type of data set: cell-based.
Data set [13] concerns SH-SY5Y. As to the kind of experiment: Inhibition of Cu2+-induced toxicity in human SH-SY5Y cells expressing APPswe mutant assessed as increase in cell viability at 1 uM after 72 hrs by WST1 assay. Type of data set: cell-based.
The subject of data set [14] is SH-SY5Y. Kind of data set: Inhibition of Fe3+-induced toxicity in human SH-SY5Y cells expressing APPswe mutant assessed as increase in cell viability at 1 uM after 72 hrs by WST1 assay. Type of data set: cell-based.
Data set [15] relates to SH-SY5Y. Kind of data set: Inhibition of Zn2+-mediated amyloid beta (1 to 42 residues) production in human SH-SY5Y cells expressing APPswe mutant at 1 uM after 72 hrs by ELISA based spectrophotometric analysis. Type of data set: cell-based.
In data set [16] the test system is SH-SY5Y. As to the kind of experiment: Inhibition of Zn2+-mediated ROS generation in human SH-SY5Y cells expressing APPswe mutant at 1 uM after 72 hrs by DCF-DA dye-based fluorescence spectroscopic analysis. Type of data set: cell-based.
The test system of data set [17] is SH-SY5Y. As to the kind of experiment: Effect on morphological changes in human SH-SY5Y cells expressing APPswe mutant assessed as decrease in adherent cell number at 1 uM after 72 hrs. The format is ADME, cell-based.
For data set [18], the system named is SH-SY5Y. Kind of data set: Effect on morphological changes in human SH-SY5Y cells expressing APPswe mutant assessed as alteration of cell shape at 1 uM after 72 hrs. Type of data set: ADME, cell-based.

The structures appear in SMILES notation. Calls of active or inactive are those of the source. Unless noted, the rule behind the calls is not given here.

Sequence of Acetylcholinesterase (Homo sapiens) (P22303 whole entry, the tested form may be a part): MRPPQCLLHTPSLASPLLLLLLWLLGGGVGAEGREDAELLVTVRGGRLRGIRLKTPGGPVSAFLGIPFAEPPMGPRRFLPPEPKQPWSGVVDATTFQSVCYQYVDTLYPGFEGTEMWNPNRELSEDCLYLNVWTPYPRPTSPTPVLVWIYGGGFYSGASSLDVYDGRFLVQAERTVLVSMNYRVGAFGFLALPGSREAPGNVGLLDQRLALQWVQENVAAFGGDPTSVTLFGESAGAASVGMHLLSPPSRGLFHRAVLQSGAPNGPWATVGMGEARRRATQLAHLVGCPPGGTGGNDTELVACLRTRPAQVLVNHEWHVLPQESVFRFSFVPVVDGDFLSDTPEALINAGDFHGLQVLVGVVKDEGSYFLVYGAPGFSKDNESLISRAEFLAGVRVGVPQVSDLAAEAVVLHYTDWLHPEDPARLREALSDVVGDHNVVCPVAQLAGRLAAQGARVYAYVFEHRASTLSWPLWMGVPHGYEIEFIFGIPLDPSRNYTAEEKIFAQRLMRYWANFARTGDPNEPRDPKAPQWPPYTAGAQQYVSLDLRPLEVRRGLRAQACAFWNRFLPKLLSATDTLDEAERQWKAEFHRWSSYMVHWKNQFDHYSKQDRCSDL

Regarding `C[C@H](CCC(=O)N/N=C/c1ccc(C(C)(C)C)cc1O)[C@H]1CC[C@H]2[C@@H]3[C@H](O)C[C@@H]4C[C@H](O)CC[C@]4(C)[C@H]3C[C@H](O)[C@]12C`, in the data set with SH-SY5Y [1], the Activity result is “Non-Toxic”. For the same molecule, the inhibition result (in [2]; in the data set with SH-SY5Y [7]; in the data set with SH-SY5Y [8]) was “inactive” in each case. Also, the outcome (in the data set with SH-SY5Y [3]; in [5]; in data set [6]) was Active. For the same molecule, in data set [4], the outcome was inactive. The inhibition entry in the data set with SH-SY5Y [9], in the data set with SH-SY5Y [10], with SH-SY5Y [11], with SH-SY5Y [12], with SH-SY5Y [13] and in the data set with SH-SY5Y [14] was “Active” each time.

With `CCN1/C(=C/c2c(NN=C(c3ccccn3)c3ccccn3)c(=O)c2=O)Sc2ccccc21`, the results for the Activity entry in the data set on SH-SY5Y [1], in the data set with SH-SY5Y [17] and in the data set with SH-SY5Y [18] were “Non-Toxic”, “Toxic” and “Toxic”, respectively. Besides, the inhibition entry in the data set with SH-SY5Y [15], with SH-SY5Y [16], with SH-SY5Y [7], in the data set with SH-SY5Y [8], in the data set on SH-SY5Y [9] and with SH-SY5Y [10] was “Active” each time. The inhibition entry in data set [2] was “inactive”. For the same molecule, the result with SH-SY5Y [3] was inactive. Further, the outcome in data set [4], in [5] and in [6] was Active.

Consider `C[C@H](CCC(=O)N/N=C/c1ccc2ccccc2n1)[C@H]1CC[C@H]2[C@@H]3[C@H](O)C[C@@H]4C[C@H](O)CC[C@]4(C)[C@H]3C[C@H](O)[C@]12C`, for which the Activity entry in the data set on SH-SY5Y [1] was “Non-Toxic”. The inhibition entry (in [2]; in the data set on SH-SY5Y [7]; with SH-SY5Y [8]) was “inactive” each time. The result (with SH-SY5Y [3]; in data set [5]; in data set [6]) was Active. Besides, in data set [4], the outcome was inactive. The inhibition entry in the data set with SH-SY5Y [9], in the data set on SH-SY5Y [10], in the data set on SH-SY5Y [11], in the data set with SH-SY5Y [12], with SH-SY5Y [13] and with SH-SY5Y [14] was “Active” in each case.

Turning to `COc1ccc(Nc2c(NN=C(c3ccccn3)c3ccccn3)c(=O)c2=O)cc1`, the Activity entry was “Non-Toxic” in the data set with SH-SY5Y [1], “Toxic” with SH-SY5Y [17] and “Toxic” in the data set with SH-SY5Y [18]. Also, the inhibition result in [2] is “inactive”. Also, the result (in the data set on SH-SY5Y [3]; in data set [4]) was inactive. Besides, the result in data set [5] and in [6] was Active. The inhibition entry in the data set on SH-SY5Y [7], in the data set with SH-SY5Y [8], in the data set with SH-SY5Y [9] and in the data set on SH-SY5Y [10] was “Active” each time.
